How the values were obtained:
[1] = tested on: oral bacteria in stimulated whole saliva; assay: Aggregation of oral bacteria in stimulated whole saliva, culture dish wells; format: cell-based, human; conditions: 15 minutes at room temperature
Procedure: Stimulated whole saliva from a human volunteer was harvested and mixed either with an untreated control (water), metal salt solutions (0.2% zinc oxide or 0.1% zinc oxide/0.05% zinc citrate mixture), amino acid solutions (0.3% arginine, 1% arginine, or 0.94% lysine), or metal-amino acid complex solutions (1.2% zinc-lysine complex, 1.33% zinc-arginine complex, or 1% copper-lysine complex) as described in the present disclosure. The solutions were incubated for 15 minutes at room temperature in culture dish wells, then photographs were taken.

Streptococcus oralis = assay: Quantitative bacterial aggregation by absorbance at 610 nm, S. oralis; format: cell-based; conditions: for OD610: 0.9% NaCl; for change in OD (610 nm) over the course of the experiment / time by which significant drop in absorbance has occurred / time of peak of absorbance: S. oralis; for change in OD (610 nm) over the course of the experiment: about one hour
Procedure: To evaluate the aggregation quantitatively, Streptococcus oralis bacteria was suspended in sterile 0.9% NaCl medium in capped culture tubes. To each tube, a different test sample was added, and the absorbance of the medium at […] was monitored over a period of about one hour. Bacteria of this size will remain suspended in solution for several hours before settling out under gravity. This gives such a solution a uniform haziness or opacity that can be quantified by measuring the absorbance of the solution at 610 nm. The aggregation of bacteria results in clumps of bacterial matter, which initially raises absorbance, followed by a sharp drop in absorbance as the bacterial matter settles out, leaving an increasingly transparent solution. Therefore, a decrease in absorbance signals the formation of bacterial aggregates.

A. viscous bacteria = assay: Quantitative bacterial aggregation by absorbance at 610 nm, A. viscous; format: cell-based; conditions: for final test result, absorbance at 610 nm: A. viscous, end of experiment
[2] = Stability of ZLC in solution (low-pH preparation); format: physicochemical; conditions: final reaction mixture, clear, slightly acidic pH (<pH 7)
Procedure: In an alternative method, lysine HCl (2 molar equivalents) is dissolved in deionized water with stirring at room temperature. Concentrated hydrochloric acid equal to approximately 0.5 molar equivalent is added to the reaction mixture. ZnO (1 molar equivalent) is then added to the reaction mixture, and the mixture is stirred until complete dissolution occurs, typically within a minutes to a few hours. The pH of the reaction is kept at 6 or below. The ZLC complex can be kept in solution in the final reaction mixture, which is clear, for more than 3 months at slightly acidic pH (i.e., <pH 7) without precipitation of ZnO. Alternatively, the reaction mixture can be spray dried to yield ZLC powder, or the reaction mixture can be adjusted to a near-neutral pH (e.g., 6.8), and the crystalline salt of ZLC can be isolated upon slow evaporation of the concentrated ZLC reaction mixture.

[3] = 0.2% zinc oxide, 0.1% zinc oxide/0.05% zinc citrate, 0.3% arginine, 0.94% lysine, 1.2% zinc-lysine, 1.33% zinc-arginine, 1% copper-lysine
[4] = 1 minute, 1.5% arginine, 0.94% lysine, 0.35% ZnCl2, 1.2% Zn-Lys, 1.33% Zn-Arg
[5] = 9 minutes, 1.5% arginine, 0.94% lysine, 0.35% ZnCl2, 1.2% Zn-Lys, 1.33% Zn-Arg
[6] = 21 minutes, 1.5% arginine, 0.94% lysine, 0.35% ZnCl2, 1.2% Zn-Lys, 1.33% Zn-Arg
[7] = 28 minutes, 1.5% arginine, 0.94% lysine, 0.35% ZnCl2, 1.2% Zn-Lys, 1.33% Zn-Arg
[8] = 40 minutes, 1.5% arginine, 0.94% lysine, 0.35% ZnCl2, 1.2% Zn-Lys, 1.33% Zn-Arg
[9] = 55 minutes, 1.5% arginine, 0.94% lysine, 0.35% ZnCl2, 1.2% Zn-Lys, 1.33% Zn-Arg
[10] = 1.5% arginine, 0.94% lysine, 0.35% zinc chloride, 1.2% zinc-lysine complex, 1.33% zinc-arginine complex
[11] = 1 minute, 1.5% arginine, 0.94% lysine, 0.35% ZnCl2, 1.2% Zn-Lysine, 1.33% Zn-Arg
[12] = 14 minutes, 1.5% arginine, 0.94% lysine, 0.35% ZnCl2, 1.2% Zn-Lysine, 1.33% Zn-Arg
[13] = 27 minutes, 1.5% arginine, 0.94% lysine, 0.35% ZnCl2, 1.2% Zn-Lysine, 1.33% Zn-Arg
[14] = 46 minutes, 1.5% arginine, 0.94% lysine, 0.35% ZnCl2, 1.2% Zn-Lysine, 1.33% Zn-Arg
[15] = 66 minutes, 1.5% arginine, 0.94% lysine, 0.35% ZnCl2, 1.2% Zn-Lysine, 1.33% Zn-Arg
[16] = 1.2% zinc-lysine complex, 1.33% zinc-arginine complex

Compound	observation of aggregate formation in saliva [1, 3]	OD610 (Streptococcus oralis; [4])	OD610 (Streptococcus oralis; [5])	OD610 (Streptococcus oralis; [6])	OD610 (Streptococcus oralis; [7])	OD610 (Streptococcus oralis; [8])	OD610 (Streptococcus oralis; [9])	change in OD (610 nm) over the course of the experiment (Streptococcus oralis; [10])	OD610 (A. viscous bacteria; [11])	OD610 (A. viscous bacteria; [12])	OD610 (A. viscous bacteria; [13])	OD610 (A. viscous bacteria; [14])	OD610 (A. viscous bacteria; [15])	also measured
N=C(N)NCCC[C@H](N)C(=O)O [Arginine, arginine]	no change was observed compared to the negative control	0.492	0.473	0.455	0.449	0.441	0.428	no appreciable change in OD (610 nm) or a rise in OD (610 nm)	0.438	0.432	0.427	0.418	0.424	observation of aggregate formation in saliva ([1]; 1% arginine): no change was observed compared to the negative control; OD610 (Streptococcus oralis; 1 minute, 5% arginine): 0.496; OD610 (Streptococcus oralis; 9 minutes, 5% arginine): 0.468; OD610 (Streptococcus oralis; 21 minutes, 5% arginine): 0.450; OD610 (Streptococcus oralis; 28 minutes, 5% arginine): 0.446; OD610 (Streptococcus oralis; 40 minutes, 5% arginine): 0.440; OD610 (Streptococcus oralis; 55 minutes, 5% arginine): 0.435; change in OD (610 nm) over the course of the experiment (Streptococcus oralis; 5% arginine): no appreciable change in OD (610 nm) or a rise in OD (610 nm); OD610 (A. viscous bacteria; 1 minute, 5% arginine): 0.341; OD610 (A. viscous bacteria; 14 minutes, 5% arginine): 0.334; OD610 (A. viscous bacteria; 27 minutes, 5% arginine): 0.335; OD610 (A. viscous bacteria; 46 minutes, 5% arginine): 0.333; OD610 (A. viscous bacteria; 66 minutes, 5% arginine): 0.333
NCCCC[C@H](N)C(=O)O [Lysine, lysine]	no change was observed compared to the negative control	0.537	0.547	0.552	0.553	0.555	0.555	no appreciable change in OD (610 nm) or a rise in OD (610 nm)	0.416	0.413	0.411	0.410	0.409	–
Cl.Cl.NCCCCC(N)C(=O)[O-].NCCCCC(N)C(=O)[O-].O.O.[Zn+2] (centres unmarked) [ZLC, zinc-lysine-chloride complex]	Large aggregates of material slowly formed and settled to the bottom of the dishes	0.549	0.551	0.574	0.515	0.357	0.182	peak of absorbance at about 21 minutes, followed by a significant drop	0.454	0.554	0.175	0.032	0.014	time by which significant drop in absorbance has occurred (Streptococcus oralis; [16]): about 55 minutes; time of peak of absorbance (Streptococcus oralis; [16]): about 21 minutes; final test result, absorbance at 610 nm (A. viscous bacteria): nearly zero absorbance; time kept in solution without precipitation of ZnO [2]: more than 3 months
[Cl-].[Cl-].[Zn+2] [ZnCl2, zinc chloride]	–	0.572	0.584	0.615	0.680	0.652	0.397	no appreciable change in OD (610 nm) or a rise in OD (610 nm)	0.315	0.315	0.316	0.391	0.255	–
[O]=[Zn] [zinc oxide]	only undissolved and/or precipitated metal salt	–	–	–	–	–	–	–	–	–	–	–	–	–
copper-lysine complex	Large aggregates of material slowly formed and settled to the bottom of the dishes	–	–	–	–	–	–	–	–	–	–	–	–	–
zinc-arginine complex [Zn-Arg]	Large aggregates of material slowly formed and settled to the bottom of the dishes	0.563	0.568	0.575	0.620	0.616	0.361	brief rise in absorbance which peaks at about 28 minutes, followed by a significant drop in absorbance	0.436	0.474	0.623	0.369	0.025	time by which significant drop in absorbance has occurred (Streptococcus oralis; [16]): about 55 minutes; time of peak of absorbance (Streptococcus oralis; [16]): about 28 minutes; final test result, absorbance at 610 nm (A. viscous bacteria): nearly zero absorbance

— patent publication US20170157013A1, “Metal Amino Acid Complexes for Bacterial Aggregation” (Colgate-Palmolive Company, priority 2015, published 2017)
